Measured values taken from patent US5618726A, “Biodegradable azo dyes” (priority 1994, dated 1997).

What was measured:
[1] = test system: P. chrysosporium ligninolytic culture; assay type: cell-based, Phanerochaete chrysosporium; details: ten days of growth; for Dye remaining in the cultures, HPLC / Dye remaining in the cultures, Spectrophotometry: initial 200 mg-per-liter; for Bleaching of cultures: 200 mg-per-liter
Experimental: Decolorization of dyes in cultures were monitored at their absorption maxima at pH 4.5, or using HPLC. A Spherisorb ODS2 C18 column was used for HPLC analysis with a sequence of DMS buffer at pH 4.5 and acetonitrile as solvents (5 min 100% DMS, 15 min 100% acetonitrile, 18 min 100% acetonitrile, 19 min 100% DMS, 20 min 100% DMS, 5 min postran 100% DMS). Peaks were monitored at 260 and 450 nm. Results from spectrophotometric and HPLC methods were compared.
The initial concentration of dye was 200 mg-per-liter. Numbers represent mg-per-liter of dye remaining in the cultures.

[2] = test system: lignin peroxidase (ligninase, LiP); assay: Oxidation of azo dyes and veratryl alcohol by pure lignin peroxidase; assay type: biochemical, Phanerochaete chrysosporium; details: for Oxidation by ligninase after VA was added: with veratryl alcohol; for Oxidation by ligninase without VA: without veratryl alcohol
Experimental: Lignin peroxidase activity was determined spectrophotometrically at room temperature with VA as substrate. One unit (U) of enzyme activity was defined as 1 μmole of veratryl aldehyde formed-per-min at pH 3. Simultaneous oxidations of azo dyes and veratryl alcohol were measured using a Hewlett-Packard 8452 diode array spectrophotometer operated in the kinetic mode by a Vectra PC equipped with MS™-DO/UV-VIS software. Azo dye concentrations were determined by measuring absorbances at appropriate maxima.
After six days of growth, when the specific activity of ligninase reached about 250 U-per-liter, culture filtrates were separated from mycelial debris by filtration. One liter of culture filtrate was concentrated to about 10 ml using an Amicon PM-10 membrane and desalted in 10 mM sodium acetate buffer (pH 6) using a Sephadex G25 NAP10 column. Ligninase isoenzyme was separated from Mn-dependent peroxidases using a Pharmacia fast protein liquid chromatography system equipped with a Mono Q HR 5/5 column. In this study isoforms H2 and H8 were used.
In vitro studies were limited to dyes 24 and 28. […] FIGS. 6A and 7A show the simultaneous oxidation of azo dyes 24 and 28, respectively, and VA by ligninase. Without VA, azo dye oxidation was limited and terminated more rapidly than in the presence of VA (FIGS. 6B and 7B). When a dye was present in a reaction mixture, the rate of VA oxidation decreased due to an apparent competition for LiPI between these two compounds. The oxidation rate of VA recovered when the azo dye oxidation was completed (FIG. 8). The maximal rate of VA oxidation was about 159 AU (absorption change per-min-per-ml of ligninase solution). Wavelengths of 310 nm for VA, 506 nm for dye 24, and 430 nm for dye 28 oxidations were used in monitoring substrate removal. The oxidation of azo dyes is stimulated by VA in high (200 μM) and low (20 μM) H2 O2 concentrations.

[3] = molecular target: T1, horseradish peroxidase type II (Armoracia rusticana, UniProt P00433); assay: Oxidation of azo dyes by horseradish peroxidase preparation; assay type: biochemical; details: pH 8, 37° C., H2O2
T1 sequence (P00433 31-338): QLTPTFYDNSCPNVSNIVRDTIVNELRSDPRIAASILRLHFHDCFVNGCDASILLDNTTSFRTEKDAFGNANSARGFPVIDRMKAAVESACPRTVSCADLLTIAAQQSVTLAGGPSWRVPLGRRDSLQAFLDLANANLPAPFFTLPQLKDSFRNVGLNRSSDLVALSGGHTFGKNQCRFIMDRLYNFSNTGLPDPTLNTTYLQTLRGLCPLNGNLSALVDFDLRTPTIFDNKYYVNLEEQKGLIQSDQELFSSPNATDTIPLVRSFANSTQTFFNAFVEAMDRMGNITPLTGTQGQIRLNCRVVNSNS
Experimental: The reaction was started with the addition of 100 μl of 50 mM H2 O2 and was followed for 1 min at 37° C. Controls were run with no addition of H2 O2 or with the addition of the hemeperoxidase inhibitor KCN (final concentration 25 μM).

[4] = test system: S. chromofuscus A11 extracellular peroxidase; assay: Oxidation of azo dyes by S. chromofuscus A11 crude enzyme preparation; assay type: biochemical, Streptomyces chromofuscus A11; details: pH 8, 37° C., H2O2
Outline: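 Enzyme from 48 h S. chromofuscus A11 culture supernatant, concentrated, ammonium sulfate-precipitated, dialyzed in 20 mM HEPES pH 8; yellow Sephadex G-25 fraction used. Reaction started with 100 μl 50 mM H2O2, followed 1 min at 37° C; controls without H2O2 or with 25 μM KCN.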

Mn(II)-peroxidase = assay: Oxidation of dyes by P. chrysosporium Mn(II)-peroxidase; assay type: biochemical, Phanerochaete chrysosporium; details: crude enzyme, conditions specific for Mn(II)-peroxidase
ligninase = assay: Oxidation of dyes by P. chrysosporium ligninase (crude preparation); assay type: biochemical, Phanerochaete chrysosporium; details: for Oxidation rate of azo dyes, P. chrysosporium Ligninase: crude enzyme, conditions specific for ligninase
Outline: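 Crude P. chrysosporium ligninase oxidation of dyes, assayed by a previously reported method; conditions as for acid yellow 9, readings every 30 s for up to 15 minutes.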

S. diastaticus A12 = assay type: cell-based; details: streptomyces diastaticus a12 culture, 336 h
Text: (§1) Microbiol., 1984, 130:2905-2913.
(§2) Replicate sterile controls also were run in each experiment.

S. diastaticus A13 = assay type: cell-based; details: streptomyces diastaticus a13 culture, 336 h
Text: as §1, §2

S. rochei A10 = assay type: cell-based; details: streptomyces rochei a10 culture, 336 h
Text: as §1, §2

S. chromofuscus A11 = details: for Decolorization of growth medium by S. chromofuscus A11: both 50 and 100 ppm; for Degradation (%) after Streptomyces cultivation, strain A11: streptomyces chromofuscus a11 culture, 336 h
Experimental: as §1, §2
The Streptomyces were grown on the same media and under the same conditions as previously described. […] Thus, the spectrophotometric assays for substrates 1-12 were carried out at their specific isobastic points. Degradation was calculated as percent of substrates removed from culture broth, considering the evaporation factor (around 10%).

[5] = test system: Phanerochaete chrysosporium; assay: Substrate removal / decolorization by P. chrysosporium culture; assay type: cell-based; details: for % Decolorization, P. chrysosporium: 14 days
Experimental: Environ. Microbiol., 1981, 42:290-296), with the addition of 75 mg adenine (6-aminopurine) and 27 mg L-phenylalanine-per-liter. This addition accelerated the growth of the fungus without inhibiting ligninase activity. […] […] Cultures were incubated at 37° C. for 7 to 15 days with shaking (250 rpm). Solid agar media were also employed.

[6] = beginning concentration 100 ppm
[7] = beginning concentration 150 ppm
[8] = beginning concentration 200 ppm
[9] = beginning concentration 300 ppm

Structure (SMILES)	Oxidation rate of azo dyes, Horseradish peroxidase [3] [μmoles per minute per ml]	Oxidation rate of azo dyes, S. chromofuscus peroxidase [4] [μmoles per minute per ml]	Oxidation rate of azo dyes, P. chrysosporium Mn-peroxidase (Mn(II)-peroxidase) [μmoles per minute per ml]	Oxidation rate of azo dyes, P. chrysosporium Ligninase (ligninase) [μmoles per minute per ml]	Degradation (%) after Streptomyces cultivation, strain A12 (S. diastaticus A12) [%]	Degradation (%) after Streptomyces cultivation, strain A13 (S. diastaticus A13) [%]	Degradation (%) after Streptomyces cultivation, strain A10 (S. rochei A10) [%]	Decolorization of growth medium by S. chromofuscus A11 (S. chromofuscus A11)	Degradation (%) after Streptomyces cultivation, strain A11 (S. chromofuscus A11) [%]	Concentration of substrate after ten days cultivation with P. chrysosporium [5, 6] [ppm]	Concentration of substrate after ten days cultivation with P. chrysosporium [5, 7] [ppm]	Concentration of substrate after ten days cultivation with P. chrysosporium [5, 8] [ppm]	Concentration of substrate after ten days cultivation with P. chrysosporium [5, 9] [ppm]	% Decolorization, P. chrysosporium ([5]; initial concn 150 ppm) [%]	% Decolorization, P. chrysosporium ([5]; initial concn 300 ppm) [%]	other results
O=S(=O)(O)c1ccc(N=Nc2ccc(N=Nc3c(O)ccc4ccccc34)c(S(=O)(=O)O)c2)cc1 [compound 24]																Dye remaining in the cultures, HPLC [1]: 4.43 mg-per-liter; Dye remaining in the cultures, Spectrophotometry [1]: 1.11 mg-per-liter; Bleaching of cultures [1]: completely bleached; Oxidation by ligninase after VA was added [2]: total decolorization; Oxidation by ligninase without VA [2]: limited extent
COc1cc(N=Nc2ccc(S(=O)(=O)O)cc2)cc(OC)c1O [compound 4]	27.04	15.19	14.33	0.22	39	8	79	significantly decolorized	83	1.637	3.763	4.218	16.323	93	92	
COc1ccc(CO)cc1OC [Veratryl alcohol, 3,4-dimethoxy benzyl alcohol, reference compound]																Maximal rate of VA oxidation by ligninase ([2]; absorption change per-min-per-ml of ligninase solution, 310 nm): about 159 AU
Cc1cc(N=Nc2ccc(S(=O)(=O)O)cc2)ccc1O [compound 5]	11.94	2.00	3.54	0.00	3	8	9	significantly decolorized	20	6.084	9.870	14.500	22.680	90	87	
O=C(O)c1nn(-c2ccc(S(=O)(=O)O)cc2)c(O)c1N=Nc1ccc(S(=O)(=O)O)cc1 [compound 28]																Dye remaining in the cultures, HPLC [1]: 3.00 mg-per-liter; Dye remaining in the cultures, Spectrophotometry [1]: 2.42 mg-per-liter; Bleaching of cultures [1]: completely bleached; Oxidation by ligninase after VA was added [2]: total decolorization; Oxidation by ligninase without VA [2]: limited extent
Cc1cc(N=Nc2ccc(S(=O)(=O)O)cc2)cc(C)c1O [compound 3]	30.68	17.20	16.37	0.42	39	10	68	significantly decolorized	73	0.358	1.223	1.894	114.772	96	97	
COc1cc(N=Nc2ccc(S(=O)(=O)O)cc2)ccc1O [compound 2]	18.19	3.68	8.19	0.72	43	18	77		73	2.493	6.350	10.068	7.318	97	94	Oxidation / decolorization by ligninase (ligninase; pH3, 0.2 mM hydrogen peroxide, 15-minute incubation): not detected; Degradation by Phanerochaete fungus ([5]; growth period of seven days, starting dye 150-200 ppm (FIG. 3), 10080 min): 90%
CCN(CC)c1ccc(N=Nc2ccc(S(=O)(=O)O)cc2)cc1 [compound 15]	0.12	0.17	0.23	0.75	1	1	2		3	1.901	10.589	17.931	17.791	38	27	
